According to PMC8688152, “Distinct classes of potassium channels fused to GPCRs as electrical signaling biosensors” (Cell Reports Methods, 2021):

What was measured:
[1] = system: Kir3.4T (Kir3.4(S143T)) co-expressed with M2_T constructs; assay: G protein activation assay: Kir3.4T co-expressed with M2_T ICCRs (TEVC); assay type: cell-based, Xenopus oocytes; conditions: 5 μM ACh
Method: (§1) Microelectrodes were filled with […]. […] The membrane voltage was clamped to −50 mV.

[2] = system: M2_Kcv-09-xx constructs with larger deletions up to 12 residues; assay type: cell-based, human (M2), Paramecium bursaria chlorella virus 1 (Kcv); conditions: ACh 5 μM, TEVC
Method: (§2) Xenopus oocytes were prepared as previously reported ([Moreau et al., 2008]). Briefly, after surgical retrieval, the oocytes were defolliculated by type 1A collagenase. Each oocyte was injected with 50 nl of RNAse-free water containing the desired mRNAs. The mRNA quantities used per oocyte were: ICCR with Kcv, 2.7 ng (M2_Kcv and D2_Kcv) and 2.9 ng (OXTR_Kcv); ICCR with mTREK-1, 4.2 ng; ICCR with Kir6.2, 4.3 ng; M2, 2.3 ng; D2, 2.2 ng; Kir3.4T, 2.2 ng; Kcv 0.46 ng and mTREK-1, 2.1 ng. Microinjected oocytes were incubated 2 to 3 days at 19°C in modified-Barth's solution (in mM: 1 KCl, 0.82 MgSO4, 88 NaCl, 2.4 NaHCO3, 0.41 CaCl2, 16 HEPES, pH 7.4) supplemented with 100 U.ml^−1 of penicillin and streptomycin and 0.1 mg.mL^−1 of gentamycin. Animal handling and experiments fully conformed to European regulations and were approved by the French Ministry of Higher Education and Research (APAFIS#4420-2016030813053199 v4 to CM). […]
(§3) Two-electrode voltage-clamp (TEVC) recordings were performed automatically with HiClamp robots (MultiChannel Systems). […] Ligand effects were measured in high potassium concentration buffer with the membrane potential clamped to −50 mV and at 19°C.
(§4) Change of potassium current induced by ligand was calculated either with the barium-sensitive currents as a 0-reference for Kcv-based ICCRs or with the currents in ND96 for mTREK-1 ICCRs. […]

[3] = molecular target: T1, I252T mutant of M2_T-00-40 (UniProt P08172+P97438, I267T); assay type: cell-based, human (M2), mouse (TREK-1)
T1 construct: full-length (−00) or M2 deleted of its last nine residues (−09) in the indicated ICCRs; expressed in transfected cells; host or cells: Xenopus oocytes (mRNA injection)
T1 sequence (P08172+P97438 fused P97438:I267T): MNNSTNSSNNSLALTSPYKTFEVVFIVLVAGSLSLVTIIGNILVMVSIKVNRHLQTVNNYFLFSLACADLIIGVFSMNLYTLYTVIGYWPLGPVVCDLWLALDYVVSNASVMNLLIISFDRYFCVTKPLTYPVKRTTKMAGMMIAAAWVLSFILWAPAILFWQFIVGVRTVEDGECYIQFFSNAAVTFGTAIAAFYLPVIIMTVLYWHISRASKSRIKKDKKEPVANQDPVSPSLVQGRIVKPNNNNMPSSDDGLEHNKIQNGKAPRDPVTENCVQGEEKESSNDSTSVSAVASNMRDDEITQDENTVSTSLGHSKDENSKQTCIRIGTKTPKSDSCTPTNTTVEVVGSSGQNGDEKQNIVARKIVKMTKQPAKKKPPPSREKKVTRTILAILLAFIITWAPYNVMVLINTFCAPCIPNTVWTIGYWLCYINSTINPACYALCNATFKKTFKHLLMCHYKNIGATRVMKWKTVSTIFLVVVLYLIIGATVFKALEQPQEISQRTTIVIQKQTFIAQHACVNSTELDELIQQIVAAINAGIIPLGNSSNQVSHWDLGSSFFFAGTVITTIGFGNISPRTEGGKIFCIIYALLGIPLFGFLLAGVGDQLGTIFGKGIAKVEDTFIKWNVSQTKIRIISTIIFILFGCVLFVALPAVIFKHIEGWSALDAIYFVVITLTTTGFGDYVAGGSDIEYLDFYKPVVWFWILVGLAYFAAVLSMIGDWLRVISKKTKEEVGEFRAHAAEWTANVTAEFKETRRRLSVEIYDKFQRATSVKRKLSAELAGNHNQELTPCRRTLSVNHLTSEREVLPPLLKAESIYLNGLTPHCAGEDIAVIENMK
Method: as §2, §3, §4

[4] = system: I252T mutant of M2_T-00-40; assay type: cell-based, human (M2), mouse (TREK-1); conditions: ACh 5 μM; I252T versus WT M2_T-00-40
Method: as §2, §3, §4

M2_T-00-43 = molecular target: T2, M2_T-00-43 (UniProt P08172+P97438); assay: TEVC recording of M2_T-00-43 ICCR in Xenopus oocytes; assay type: cell-based, human (M2), mouse (TREK-1); set-up: full-length (−00) or M2 deleted of its last nine residues (−09) in the indicated ICCRs; expressed in transfected cells; host or cells: Xenopus oocytes (mRNA injection)
T2 sequence (P08172+P97438 with tags, fused parts or gaps): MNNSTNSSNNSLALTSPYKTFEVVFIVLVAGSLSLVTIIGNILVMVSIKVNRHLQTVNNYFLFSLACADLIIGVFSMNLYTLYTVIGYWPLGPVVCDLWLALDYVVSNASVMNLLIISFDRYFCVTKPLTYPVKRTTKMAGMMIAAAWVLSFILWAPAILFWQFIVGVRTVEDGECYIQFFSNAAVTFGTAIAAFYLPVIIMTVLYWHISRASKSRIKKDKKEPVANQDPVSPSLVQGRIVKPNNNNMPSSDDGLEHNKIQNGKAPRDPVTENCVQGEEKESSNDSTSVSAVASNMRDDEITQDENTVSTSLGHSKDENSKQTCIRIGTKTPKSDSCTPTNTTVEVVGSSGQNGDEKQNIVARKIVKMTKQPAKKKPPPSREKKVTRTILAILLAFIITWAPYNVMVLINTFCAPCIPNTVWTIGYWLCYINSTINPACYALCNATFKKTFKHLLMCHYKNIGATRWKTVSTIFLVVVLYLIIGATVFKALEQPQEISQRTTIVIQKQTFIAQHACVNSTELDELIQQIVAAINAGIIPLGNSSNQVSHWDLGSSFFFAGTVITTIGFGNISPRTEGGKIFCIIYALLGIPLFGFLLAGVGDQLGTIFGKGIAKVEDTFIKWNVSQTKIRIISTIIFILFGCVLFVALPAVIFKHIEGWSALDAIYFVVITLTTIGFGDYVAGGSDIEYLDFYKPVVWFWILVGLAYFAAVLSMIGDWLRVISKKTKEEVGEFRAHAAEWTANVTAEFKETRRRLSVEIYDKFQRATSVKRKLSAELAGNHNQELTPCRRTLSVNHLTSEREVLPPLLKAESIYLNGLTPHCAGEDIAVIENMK
Method: Xenopus oocytes were prepared as previously reported ([Moreau et al., 2008]). Briefly, after surgical retrieval, the oocytes were defolliculated by type 1A collagenase. Each oocyte was injected with 50 nl of RNAse-free water containing the desired mRNAs. The mRNA quantities used per oocyte were: ICCR with Kcv, 2.7 ng (M2_Kcv and D2_Kcv) and 2.9 ng (OXTR_Kcv); ICCR with mTREK-1, 4.2 ng; ICCR with Kir6.2, 4.3 ng; M2, 2.3 ng; D2, 2.2 ng; Kir3.4T, 2.2 ng; Kcv 0.46 ng and mTREK-1, 2.1 ng. Microinjected oocytes were incubated 2 to 3 days at 19°C in modified-Barth's solution (in mM: 1 KCl, 0.82 MgSO4, 88 NaCl, 2.4 NaHCO3, 0.41 CaCl2, 16 HEPES, pH 7.4) supplemented with 100 U.ml^−1 of penicillin and streptomycin and 0.1 mg.mL^−1 of gentamycin. Animal handling and experiments fully conformed to European regulations and were approved by the French Ministry of Higher Education and Research (APAFIS#4420-2016030813053199 v4 to CM). Authorization of the animal facility has been delivered by the Prefect of Isere (Authorization #D 38 185 10 001).
Two-electrode voltage-clamp (TEVC) recordings were performed automatically with HiClamp robots (MultiChannel Systems). These TEVC robots rapidly change the applied solutions by transferring the oocytes in different wells of a 96-well plate. […] Microelectrodes were filled with […]. During recordings, oocytes were incubated in low potassium concentration buffer (ND96, in mM: 96 NaCl, 2 KCl, 1.8 CaCl2, 1 MgCl2, 5 HEPES, pH 7.4 supplemented with 0.3 niflumic acid), and in high potassium buffer (in mM: 91 KCl, 1.8 CaCl2, 1 MgCl2, 5 HEPES, 0.3 niflumic acid, pH 7.4). The membrane voltage was clamped to −50 mV. Ligands and BaCl2 were diluted in the high potassium buffer. […] Ligand effects were measured in high potassium concentration buffer with the membrane potential clamped to −50 mV and at 19°C.
Change of potassium current induced by ligand was calculated either with the barium-sensitive currents as a 0-reference for Kcv-based ICCRs or with the currents in ND96 for mTREK-1 ICCRs. Softwares created by Michel Vivaudou ([Vivaudou, 2019]) were used to extract the raw data.

M2_T-00-37 = molecular target: T3, M2_T-00-37 (UniProt P08172+P97438); assay: TEVC recording of M2_T-00-37 ICCR in Xenopus oocytes; assay type: cell-based, human (M2), mouse (TREK-1); conditions: 91 mM K+, Vm = −50 mV, mean ± SEM
T3 construct: M2_T-00-37 with zero deletion in the M2 receptor C terminus (full-length receptor); expressed in transfected cells; host or cells: Xenopus oocytes (mRNA injection)
T3 sequence (P08172+P97438 fused): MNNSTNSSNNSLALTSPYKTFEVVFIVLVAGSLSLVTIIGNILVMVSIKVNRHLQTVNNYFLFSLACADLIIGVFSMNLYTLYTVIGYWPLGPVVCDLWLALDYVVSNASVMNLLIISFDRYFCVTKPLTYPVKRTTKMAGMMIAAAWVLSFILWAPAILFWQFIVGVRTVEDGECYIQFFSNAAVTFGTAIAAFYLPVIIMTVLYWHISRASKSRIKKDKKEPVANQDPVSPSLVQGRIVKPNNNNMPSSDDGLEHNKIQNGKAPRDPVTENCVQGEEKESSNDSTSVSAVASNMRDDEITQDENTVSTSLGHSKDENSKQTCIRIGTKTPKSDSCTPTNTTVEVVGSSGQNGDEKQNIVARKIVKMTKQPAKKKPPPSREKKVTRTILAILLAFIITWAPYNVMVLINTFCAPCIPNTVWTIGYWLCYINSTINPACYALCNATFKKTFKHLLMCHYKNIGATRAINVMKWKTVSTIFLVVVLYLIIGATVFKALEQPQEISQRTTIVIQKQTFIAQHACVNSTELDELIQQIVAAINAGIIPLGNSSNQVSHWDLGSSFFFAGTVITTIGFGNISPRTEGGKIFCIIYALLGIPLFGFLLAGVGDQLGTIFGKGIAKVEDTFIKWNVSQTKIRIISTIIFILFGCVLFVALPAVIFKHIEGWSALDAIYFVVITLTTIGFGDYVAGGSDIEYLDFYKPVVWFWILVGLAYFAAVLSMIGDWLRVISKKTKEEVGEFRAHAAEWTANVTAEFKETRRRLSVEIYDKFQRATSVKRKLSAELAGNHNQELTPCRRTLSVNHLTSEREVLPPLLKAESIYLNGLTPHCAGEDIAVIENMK
Method: as §1

CC(=O)OCC[N+](C)(C)C [ACh, acetylcholine]
G protein activation (Kir3.4T) by M2_T-09-40 and -09-43 [1]: still able to activate Gi/o proteins | activation of Kir3.4T co-expressed with M2_T-00-37, −40, −43 and −46 ([1]; no significant differences between the four constructs): clear activation | response of M2_Kcv-09 constructs with larger deletions up to 12 residues to ACh [2]: did not yield significant responses | activation induced by ACh on the I252T mutant of M2_T-00-40 [3]: 84.7% ± 11.2% | increase of ACh-induced activation of the I252T mutant compared with the WT counterpart [4]: more than 4 fold | Hill coefficient (nH) on M2_T-00-43 (M2_T-00-43): 0.76 | activation: % of current change induced by ACh 5 μM on M2_T-00-43 (M2_T-00-43): 49.9% ± 5.1% | activation: % of current change induced by ACh 5 μM on M2_T-00-43 co-expressed with PTX (M2_T-00-43; 5 μM, co-injection of mRNA for pertussis toxin S1 subunit, mean ± SEM): 49.3% ± 4.4% | activation: % of current change induced by ACh 5 μM on M2_T-00-37 (M2_T-00-37): 3.9% ± 0.9%
